ChEMBL document CHEMBL1129220, “Synthesis and structure-activity relationships of novel 3-Hty-substituted pneumocandins” (Bioorg Med Chem Lett, 1997)
In brackets after ≈: the same amount, converted by molar mass.

Each compound was assayed on Candida albicans (assay: In vitro minimum fungicidal concentration against Candida albicans (MY 1055) using a whole cell broth microdilution assay.).
Type: functional

Structure (SMILES) | MFC [µg/mL]
CCC(C)CC(C)CCCCCCCCC(=O)N[C@@H]1C[C@@H](O)CNC(=O)[C@@H]2[C@@H](O)CCN2C(=O)[C@H]([C@@H](O)CC(N)=O)NC(=O)[C@H]([C@@H](O)Cc2ccc(O)c([N+](=O)[O-])c2)NC(=O)[C@@H]2C[C@@H](O)CN2C(=O)[C@H]([C@@H](C)O)NC1=O (some centres undefined) | 2 (≈ 1.85 µM)
CCC(C)CC(C)CCCCCCCCC(=O)N[C@@H]1C[C@@H](O)[C@@H](O)NC(=O)[C@@H]2[C@@H](O)CCN2C(=O)[C@H]([C@@H](O)CC(N)=O)NC(=O)[C@H]([C@@H](O)[C@H](O)c2ccc(O)c([N+](=O)[O-])c2)NC(=O)[C@@H]2C[C@@H](O)CN2C(=O)[C@H]([C@@H](C)O)NC1=O (some centres undefined) | 8 (≈ 7.21 µM)
CCCc1cc(C[C@H](O)[C@@H]2NC(=O)[C@@H]3C[C@@H](O)CN3C(=O)[C@H]([C@@H](C)O)NC(=O)[C@H](NC(=O)CCCCCCCCC(C)CC(C)CC)C[C@@H](O)CNC(=O)[C@@H]3[C@@H](O)CCN3C(=O)[C@H]([C@@H](O)CC(N)=O)NC2=O)ccc1O (some centres undefined) | 0.5 (≈ 0.465 µM)
CCC(C)CC(C)CCCCCCCCC(=O)N[C@@H]1C[C@@H](O)[C@@H](O)NC(=O)[C@@H]2[C@@H](O)CCN2C(=O)[C@H]([C@@H](O)CC(N)=O)NC(=O)[C@H]([C@@H](O)[C@H](O)c2ccc(O)cc2)NC(=O)[C@@H]2C[C@@H](O)CN2C(=O)[C@H]([C@@H](C)O)NC1=O (some centres undefined) | 0.25 (≈ 0.235 µM)
CCC(C)CC(C)CCCCCCCCC(=O)N[C@@H]1C[C@@H](O)CNC(=O)[C@@H]2[C@@H](O)CCN2C(=O)[C@H]([C@@H](O)CC(N)=O)NC(=O)[C@H]([C@@H](O)Cc2ccc(O)c(C(=O)OC)c2)NC(=O)[C@@H]2C[C@@H](O)CN2C(=O)[C@H]([C@@H](C)O)NC1=O (some centres undefined) | 2 (≈ 1.83 µM)
CCC(C)CC(C)CCCCCCCCC(=O)N[C@@H]1C[C@@H](O)[C@@H](O)NC(=O)[C@@H]2[C@@H](O)CCN2C(=O)[C@H]([C@@H](O)CC(N)=O)NC(=O)[C@H]([C@@H](O)[C@H](O)c2ccc(O)c(N)c2)NC(=O)[C@@H]2C[C@@H](O)CN2C(=O)[C@H]([C@@H](C)O)NC1=O (some centres undefined) | 2 (≈ 1.85 µM)
CCC(C)CC(C)CCCCCCCCC(=O)N[C@@H]1C[C@@H](O)[C@@H](O)NC(=O)[C@@H]2[C@@H](O)CCN2C(=O)[C@H]([C@@H](O)CC(N)=O)NC(=O)[C@H]([C@@H](O)[C@H](O)c2ccc(O)c(I)c2)NC(=O)[C@@H]2C[C@@H](O)CN2C(=O)[C@H]([C@@H](C)O)NC1=O (some centres undefined) | 4 (≈ 3.36 µM)
CCC(C)CC(C)CCCCCCCCC(=O)N[C@@H]1C[C@@H](O)CNC(=O)[C@@H]2[C@@H](O)CCN2C(=O)[C@H]([C@@H](O)CC(N)=O)NC(=O)[C@H]([C@@H](O)Cc2ccc(O)c(C=O)c2)NC(=O)[C@@H]2C[C@@H](O)CN2C(=O)[C@H]([C@@H](C)O)NC1=O (some centres undefined) | 1 (≈ 0.942 µM)
C=CCc1cc(C[C@H](O)[C@@H]2NC(=O)[C@@H]3C[C@@H](O)CN3C(=O)[C@H]([C@@H](C)O)NC(=O)[C@H](NC(=O)CCCCCCCCC(C)CC(C)CC)C[C@@H](O)CNC(=O)[C@@H]3[C@@H](O)CCN3C(=O)[C@H]([C@@H](O)CC(N)=O)NC2=O)ccc1O (some centres undefined) | 1 (≈ 0.932 µM)
CCC(C)CC(C)CCCCCCCCC(=O)N[C@@H]1C[C@@H](O)CNC(=O)[C@@H]2[C@@H](O)CCN2C(=O)[C@H]([C@@H](O)CC(N)=O)NC(=O)[C@H]([C@@H](O)Cc2ccc(O)c(N=[N+]=[N-])c2)NC(=O)[C@@H]2C[C@@H](O)CN2C(=O)[C@H]([C@@H](C)O)NC1=O (some centres undefined) | 4 (≈ 3.72 µM)
CCC(C)CC(C)CCCCCCCCC(=O)N[C@@H]1C[C@@H](O)CNC(=O)[C@@H]2[C@@H](O)CCN2C(=O)[C@H]([C@@H](O)CC(N)=O)NC(=O)[C@H]([C@@H](O)Cc2ccc3c(c2)CC(O)O3)NC(=O)[C@@H]2C[C@@H](O)CN2C(=O)[C@H]([C@@H](C)O)NC1=O (some centres undefined) | 1 (≈ 0.93 µM)
CCC(C)CC(C)CCCCCCCCC(=O)N[C@@H]1C[C@@H](O)[C@@H](O)NC(=O)[C@@H]2[C@@H](O)CCN2C(=O)[C@H]([C@@H](O)CC(N)=O)NC(=O)[C@H]([C@@H](O)[C@H](O)c2ccc(O)c(NC(=O)CS)c2)NC(=O)[C@@H]2C[C@@H](O)CN2C(=O)[C@H]([C@@H](C)O)NC1=O (some centres undefined) | 2 (≈ 1.73 µM)
CCC(C)CC(C)CCCCCCCCC(=O)N[C@@H]1C[C@@H](O)[C@@H](O)NC(=O)[C@@H]2[C@@H](O)CCN2C(=O)[C@H]([C@@H](O)CC(N)=O)NC(=O)[C@H]([C@@H](O)[C@H](O)c2cc(I)c(O)c(I)c2)NC(=O)[C@@H]2C[C@@H](O)CN2C(=O)[C@H]([C@@H](C)O)NC1=O (some centres undefined) | 8 (≈ 6.07 µM)
CCC(C)CC(C)CCCCCCCCC(=O)N[C@@H]1C[C@@H](O)[C@@H](O)NC(=O)[C@@H]2[C@@H](O)CCN2C(=O)[C@H]([C@@H](O)CC(N)=O)NC(=O)[C@H]([C@@H](O)[C@H](O)c2ccc(O)c(NC(=O)CCN)c2)NC(=O)[C@@H]2C[C@@H](O)CN2C(=O)[C@H]([C@@H](C)O)NC1=O (some centres undefined) | 0.25 (≈ 0.217 µM)
CCC(C)CC(C)CCCCCCCCC(=O)N[C@@H]1C[C@@H](O)CNC(=O)[C@@H]2[C@@H](O)CCN2C(=O)[C@H]([C@@H](O)CC(N)=O)NC(=O)[C@H]([C@@H](O)Cc2ccc(O)c(O)c2)NC(=O)[C@@H]2C[C@@H](O)CN2C(=O)[C@H]([C@@H](C)O)NC1=O (some centres undefined) | 0.5 (≈ 0.477 µM)
CCC(C)CC(C)CCCCCCCCC(=O)N[C@@H]1C[C@@H](O)[C@@H](O)NC(=O)[C@@H]2[C@@H](O)CCN2C(=O)[C@H]([C@@H](O)CC(N)=O)NC(=O)[C@H]([C@@H](O)[C@H](O)c2ccc(O)c(N=[N+]=[N-])c2)NC(=O)[C@@H]2C[C@@H](O)CN2C(=O)[C@H]([C@@H](C)O)NC1=O (some centres undefined) | 0.5 (≈ 0.452 µM)
C=Cc1cc(C[C@H](O)[C@@H]2NC(=O)[C@@H]3C[C@@H](O)CN3C(=O)[C@H]([C@@H](C)O)NC(=O)[C@H](NC(=O)CCCCCCCCC(C)CC(C)CC)C[C@@H](O)CNC(=O)[C@@H]3[C@@H](O)CCN3C(=O)[C@H]([C@@H](O)CC(N)=O)NC2=O)ccc1O (some centres undefined) | 1 (≈ 0.944 µM)
CCC(C)CC(C)CCCCCCCCC(=O)N[C@@H]1C[C@@H](O)[C@@H](O)NC(=O)[C@@H]2[C@@H](O)CCN2C(=O)[C@H]([C@@H](O)CC(N)=O)NC(=O)[C@H]([C@@H](O)[C@H](O)c2ccc(O)c(NC(=O)CCC(=O)O)c2)NC(=O)[C@@H]2C[C@@H](O)CN2C(=O)[C@H]([C@@H](C)O)NC1=O (some centres undefined) | 0.25 (≈ 0.212 µM)
CCc1cc(C[C@H](O)[C@@H]2NC(=O)[C@@H]3C[C@@H](O)CN3C(=O)[C@H]([C@@H](C)O)NC(=O)[C@H](NC(=O)CCCCCCCCC(C)CC(C)CC)C[C@@H](O)CNC(=O)[C@@H]3[C@@H](O)CCN3C(=O)[C@H]([C@@H](O)CC(N)=O)NC2=O)ccc1O (some centres undefined) | 1 (≈ 0.942 µM)
CCC(C)CC(C)CCCCCCCCC(=O)N[C@@H]1C[C@@H](O)CNC(=O)[C@@H]2[C@@H](O)CCN2C(=O)[C@H]([C@@H](O)CC(N)=O)NC(=O)[C@H]([C@@H](O)Cc2ccc(O)c(N)c2)NC(=O)[C@@H]2C[C@@H](O)CN2C(=O)[C@H]([C@@H](C)O)NC1=O (some centres undefined) | 2 (≈ 1.91 µM)
CCC(C)CC(C)CCCCCCCCC(=O)N[C@@H]1C[C@@H](O)[C@@H](O)NC(=O)[C@@H]2[C@@H](O)CCN2C(=O)[C@H]([C@@H](O)CC(N)=O)NC(=O)[C@H]([C@@H](O)[C@H](O)c2ccc(O)c(NC(=O)CN)c2)NC(=O)[C@@H]2C[C@@H](O)CN2C(=O)[C@H]([C@@H](C)O)NC1=O (some centres undefined) | 0.25 (≈ 0.22 µM)
CCC(C)CC(C)CCCCCCCCC(=O)N[C@@H]1C[C@@H](O)CNC(=O)[C@@H]2[C@@H](O)CCN2C(=O)[C@H]([C@@H](O)CC(N)=O)NC(=O)[C@H]([C@@H](O)Cc2ccc(O)c(I)c2)NC(=O)[C@@H]2C[C@@H](O)CN2C(=O)[C@H]([C@@H](C)O)NC1=O (some centres undefined) | 0.5 (≈ 0.431 µM)
CCC(C)CC(C)CCCCCCCCC(=O)N[C@@H]1C[C@@H](O)CNC(=O)[C@@H]2[C@@H](O)CCN2C(=O)[C@H]([C@@H](O)CC(N)=O)NC(=O)[C@H]([C@@H](O)Cc2ccc(O)cc2)NC(=O)[C@@H]2C[C@@H](O)CN2C(=O)[C@H]([C@@H](C)O)NC1=O (some centres undefined) | 0.25 (≈ 0.242 µM)
CCC(C)CC(C)CCCCCCCCC(=O)N[C@@H]1C[C@@H](O)[C@@H](O)NC(=O)[C@@H]2[C@@H](O)CCN2C(=O)[C@H]([C@@H](O)CC(N)=O)NC(=O)[C@H]([C@@H](O)[C@H](O)c2ccc(O)c(NC(C)=O)c2)NC(=O)[C@@H]2C[C@@H](O)CN2C(=O)[C@H]([C@@H](C)O)NC1=O (some centres undefined) | 1 (≈ 0.891 µM)
CCC(C)CC(C)CCCCCCCCC(=O)N[C@@H]1C[C@@H](O)CNC(=O)[C@@H]2[C@@H](O)CCN2C(=O)[C@H]([C@@H](O)CC(N)=O)NC(=O)[C@H]([C@@H](O)Cc2ccc(O)c(CCO)c2)NC(=O)[C@@H]2C[C@@H](O)CN2C(=O)[C@H]([C@@H](C)O)NC1=O (some centres undefined) | 0.5 (≈ 0.464 µM)

The compounds below were run on Mus musculus (assay: In vivo anti-Candida activity was obtained in the target organ kidney assay (TOKA), a mouse model of disseminated candidiasis; 20% of animals in test group with kidneys were completely sterilized of Candida albicans at the ED99.9 dose).
Type: functional

Structure (SMILES) | ED99.9 [mg/kg]
CCC(C)CC(C)CCCCCCCCC(=O)N[C@@H]1C[C@@H](O)[C@@H](O)NC(=O)[C@@H]2[C@@H](O)CCN2C(=O)[C@H]([C@@H](O)CC(N)=O)NC(=O)[C@H]([C@@H](O)[C@H](O)c2ccc(O)cc2)NC(=O)[C@@H]2C[C@@H](O)CN2C(=O)[C@H]([C@@H](C)O)NC1=O (some centres undefined) | 6

What follows are compounds tested on Mus musculus (assay: In vivo anti-Candida activity was obtained in the target organ kidney assay (TOKA), a mouse model of disseminated candidiasis; 0% of animals in test group with kidneys were completely sterilized of Candida albicans at the ED99.9 dose).
Type: functional

Structure (SMILES) | ED99.9 [mg/kg]
CCC(C)CC(C)CCCCCCCCC(=O)N[C@@H]1C[C@@H](O)[C@@H](O)NC(=O)[C@@H]2[C@@H](O)CCN2C(=O)[C@H]([C@@H](O)CC(N)=O)NC(=O)[C@H]([C@@H](O)[C@H](O)c2ccc(O)c(NC(=O)CCN)c2)NC(=O)[C@@H]2C[C@@H](O)CN2C(=O)[C@H]([C@@H](C)O)NC1=O (some centres undefined) | 0.78
CCC(C)CC(C)CCCCCCCCC(=O)N[C@@H]1C[C@@H](O)[C@@H](O)NC(=O)[C@@H]2[C@@H](O)CCN2C(=O)[C@H]([C@@H](O)CC(N)=O)NC(=O)[C@H]([C@@H](O)[C@H](O)c2ccc(O)c(NC(=O)CCC(=O)O)c2)NC(=O)[C@@H]2C[C@@H](O)CN2C(=O)[C@H]([C@@H](C)O)NC1=O (some centres undefined) | 6

Each compound was assayed on Mus musculus (assay: In vivo anti-Candida activity was obtained in the target organ kidney assay (TOKA), a mouse model of disseminated candidiasis; 40% of animals in test group with kidneys were completely sterilized of Candida albicans at the ED99.9 dose).
Type: functional

Structure (SMILES) | ED99.9 [mg/kg]
CCC(C)CC(C)CCCCCCCCC(=O)N[C@@H]1C[C@@H](O)[C@@H](O)NC(=O)[C@@H]2[C@@H](O)CCN2C(=O)[C@H]([C@@H](O)CC(N)=O)NC(=O)[C@H]([C@@H](O)[C@H](O)c2ccc(O)c(NC(=O)CN)c2)NC(=O)[C@@H]2C[C@@H](O)CN2C(=O)[C@H]([C@@H](C)O)NC1=O (some centres undefined) | 0.75
